# Experimental data taken from patent US20100292231A1, “Indazole Compounds for Treating Inflammatory Disorders, Demyelinating Disorders and Cancers” (priority 2007, published 2010).
# Columns and labels:
# FLT3 = target: T1, FLT3 (Homo sapiens, UniProt P36888); assay: SelectScreen FLT3 kinase dose response assay; type: biochemical; conditions: ATP 100 micromolar; for EC50: dose response, 4 parameter Hill equation, read-out: FLT3 Inhibition EC50
# T1 construct: purchased Invitrogen (SelectScreen platform)
# T1 sequence (P36888 27-993): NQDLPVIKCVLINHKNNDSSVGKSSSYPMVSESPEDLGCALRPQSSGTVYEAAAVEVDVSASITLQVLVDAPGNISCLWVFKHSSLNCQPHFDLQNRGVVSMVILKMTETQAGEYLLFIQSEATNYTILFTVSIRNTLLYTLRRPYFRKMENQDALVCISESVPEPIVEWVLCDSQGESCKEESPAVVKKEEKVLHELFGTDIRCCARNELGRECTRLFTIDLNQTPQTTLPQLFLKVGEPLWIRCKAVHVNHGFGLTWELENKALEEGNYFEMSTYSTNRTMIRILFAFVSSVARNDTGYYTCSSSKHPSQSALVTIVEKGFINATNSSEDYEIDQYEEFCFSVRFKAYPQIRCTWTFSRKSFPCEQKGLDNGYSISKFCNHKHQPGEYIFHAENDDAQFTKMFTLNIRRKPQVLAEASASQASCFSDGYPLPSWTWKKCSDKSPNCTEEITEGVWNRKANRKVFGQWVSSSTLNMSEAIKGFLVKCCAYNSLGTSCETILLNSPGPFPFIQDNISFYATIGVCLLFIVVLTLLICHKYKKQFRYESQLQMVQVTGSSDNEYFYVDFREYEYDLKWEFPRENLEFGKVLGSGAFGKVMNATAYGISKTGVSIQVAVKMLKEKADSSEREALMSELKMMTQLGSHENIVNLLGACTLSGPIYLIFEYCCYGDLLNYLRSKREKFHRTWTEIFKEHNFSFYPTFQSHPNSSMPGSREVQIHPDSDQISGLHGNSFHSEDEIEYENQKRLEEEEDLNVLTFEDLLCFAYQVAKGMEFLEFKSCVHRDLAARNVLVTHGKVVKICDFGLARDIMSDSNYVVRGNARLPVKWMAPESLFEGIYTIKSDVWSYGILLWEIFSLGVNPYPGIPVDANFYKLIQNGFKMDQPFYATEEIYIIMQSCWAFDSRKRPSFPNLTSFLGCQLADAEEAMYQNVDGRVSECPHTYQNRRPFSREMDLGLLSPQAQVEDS
# Description: The terms “IC50” and “EC50” are used interchangeably. As used herein, “EC50” refers to nMolar concentration at median percent inhibition determined by dose respose (DR) assay. As used herein, the term “E1000” refers to percent inhibition at 1000 nMolar determined by assay.
# Testing of the compounds described in this invention was carried out using the SelectScreen™ platform from Invitrogen, Inc. (Carlsbad. Calif., USA) and the details of its performance are readily viewed via the web by linking to: http://www.invitrogen.com/downloads/SelectScrn_Brochure.pdf.
# Briefly, the approach is based on treating each specific kinase with a unique substrate and optical reporter system in the presence of ATP at 100 micromolar. In controls, the substrate is phosphorylated and a baseline optimal response is recorded.
# The compounds were then re-tested by adding graded amounts of putative inhibitor which were added in 5 separate increments to generate a dose response curve. The latter is obtained by fitting to a 4 parameter Hill equation, a sigmoid saturation equation.
# For the compounds of this invention, the experimental conditions were as follows. The 2× FLT3/Tyr 02 peptide mixture was prepared in 50 mM HEPES pH 7.5, 0.01 BRIJ-35, 10 mM MgCl2, 1 mM EGTA. The final 10 uL kinase reaction consists of 0.6-76.0 ng FLT3 and 2 uM Tyr 02 peptide in 50 mM HEPES pH 7.5, 0.01% BRIJ-35, 10 mM MgCl2, 1 mM EGTA. After 1 hour kinase reaction incubation, 5 uL of a 1:64 dilution of development reagent A was added.
# [1] = system: Raw264.7 (murine macrophage-like cells); assay: sulforhodamine B (SRB) cytotoxicity assay; type: cell-based; conditions: Mus musculus, RAW264.7, 144 h; 25 μM highest concentration, diluted 1:5; 6 days; read-out: IC50 Measured Against Raw264.7 Cell Line
SMILES,"inhibition at 1 µM (FLT3; 1000 nMolar compound, read-out: FLT3 Inhibition E1000 (percent inhibition at 1000 nMolar)) [%]",EC50 (FLT3) [nM],FLT3 Inhibition E1000 (percent inhibition at 1000 nMolar) (FLT3; 1000 nMolar compound) [%],IC50 [1] [nM]
O=c1c2c(F)ccc3ncn(c4ccc5[nH]ncc5c14)c32 [(XVIII)],47,1330,–,–
"c1ccc(-c2n[nH]c3c2oc2ccccc23)cc1 [GTP-14564, reference compound]",–,26,95,–
"Cc1nc2cc3nc(-c4cccs4)cnc3cc2n1C [AGL-2043, reference compound]",–,38,93,–
"CCN(CC)CCNC(=O)c1c(C)[nH]c(/C=C2\C(=O)Nc3ccc(F)cc32)c1C [Sunitinib, sunitinib, reference compound]",–,–,–,763
